For experiment [1], the target named is T1, Protein kinase C zeta type (Homo sapiens) (UniProt Q05513).
T1 sequence (whole entry): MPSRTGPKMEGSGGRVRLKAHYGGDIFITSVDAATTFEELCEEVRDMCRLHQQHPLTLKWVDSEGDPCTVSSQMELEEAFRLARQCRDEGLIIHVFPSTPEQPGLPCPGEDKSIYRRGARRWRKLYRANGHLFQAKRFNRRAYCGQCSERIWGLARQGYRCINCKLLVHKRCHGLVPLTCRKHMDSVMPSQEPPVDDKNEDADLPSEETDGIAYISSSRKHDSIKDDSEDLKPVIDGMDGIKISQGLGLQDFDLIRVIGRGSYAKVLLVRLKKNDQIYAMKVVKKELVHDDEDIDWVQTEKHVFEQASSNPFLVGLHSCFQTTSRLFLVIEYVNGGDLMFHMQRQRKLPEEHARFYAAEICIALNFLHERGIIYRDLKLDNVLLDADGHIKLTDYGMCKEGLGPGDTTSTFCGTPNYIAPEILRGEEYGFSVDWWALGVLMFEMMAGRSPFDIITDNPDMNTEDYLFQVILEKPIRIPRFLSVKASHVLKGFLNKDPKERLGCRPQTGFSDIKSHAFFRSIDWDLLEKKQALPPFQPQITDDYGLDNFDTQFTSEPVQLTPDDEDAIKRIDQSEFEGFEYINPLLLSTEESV
The experiment in a line: Inhibition of human full length PKC zeta expressed in baculovirus assessed as substrate phosphorylation using fluorescence-labelled peptides as substrate at 0.2 uM after 90 mins by microfluidic peptide phosphorylation assay.

For experiment [2], the target named is Fibroblast growth factor receptor 4 (Homo sapiens) (UniProt P22455). The experiment in a line: Inhibition of human FGFR4 catalytic domain expressed in baculovirus assessed as substrate phosphorylation using fluorescence-labelled peptides as substrate at 0.2 uM after 90 mins by microfluidic peptide phosphorylation assay.
Experiment [3] has as its target T2, Serine/threonine-protein kinase BRSK1 (Homo sapiens) (UniProt Q8TDC3).
T2 sequence (whole entry): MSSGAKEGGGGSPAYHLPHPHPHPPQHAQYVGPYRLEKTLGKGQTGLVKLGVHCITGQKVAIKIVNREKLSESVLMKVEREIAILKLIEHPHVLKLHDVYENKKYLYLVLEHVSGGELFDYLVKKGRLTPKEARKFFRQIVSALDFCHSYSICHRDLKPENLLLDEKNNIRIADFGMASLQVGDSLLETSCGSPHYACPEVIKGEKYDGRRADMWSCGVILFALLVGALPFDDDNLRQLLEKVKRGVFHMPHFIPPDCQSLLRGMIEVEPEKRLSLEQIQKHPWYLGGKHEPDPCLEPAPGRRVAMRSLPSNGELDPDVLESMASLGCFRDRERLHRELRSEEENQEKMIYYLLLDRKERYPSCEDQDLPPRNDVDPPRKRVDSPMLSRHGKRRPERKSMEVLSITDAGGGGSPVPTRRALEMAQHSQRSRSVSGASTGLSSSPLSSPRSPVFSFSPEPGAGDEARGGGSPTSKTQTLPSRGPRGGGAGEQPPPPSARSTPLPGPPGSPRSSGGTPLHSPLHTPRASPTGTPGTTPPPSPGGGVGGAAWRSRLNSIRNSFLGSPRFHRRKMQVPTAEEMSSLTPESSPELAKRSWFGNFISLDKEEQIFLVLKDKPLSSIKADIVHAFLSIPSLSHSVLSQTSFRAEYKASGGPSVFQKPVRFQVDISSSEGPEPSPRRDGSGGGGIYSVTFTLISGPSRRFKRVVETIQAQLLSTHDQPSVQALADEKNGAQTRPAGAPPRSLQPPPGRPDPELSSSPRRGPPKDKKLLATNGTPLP
The experiment in a line: Inhibition of human full length BRSK1 expressed in baculovirus assessed as substrate phosphorylation using fluorescence-labelled peptides as substrate at 95 uM after 90 mins by microfluidic peptide phosphorylation assay.

The target in experiment [4] is T3, Inhibitor of nuclear factor kappa-B kinase subunit beta (Homo sapiens) (UniProt O14920).
T3 sequence (whole entry): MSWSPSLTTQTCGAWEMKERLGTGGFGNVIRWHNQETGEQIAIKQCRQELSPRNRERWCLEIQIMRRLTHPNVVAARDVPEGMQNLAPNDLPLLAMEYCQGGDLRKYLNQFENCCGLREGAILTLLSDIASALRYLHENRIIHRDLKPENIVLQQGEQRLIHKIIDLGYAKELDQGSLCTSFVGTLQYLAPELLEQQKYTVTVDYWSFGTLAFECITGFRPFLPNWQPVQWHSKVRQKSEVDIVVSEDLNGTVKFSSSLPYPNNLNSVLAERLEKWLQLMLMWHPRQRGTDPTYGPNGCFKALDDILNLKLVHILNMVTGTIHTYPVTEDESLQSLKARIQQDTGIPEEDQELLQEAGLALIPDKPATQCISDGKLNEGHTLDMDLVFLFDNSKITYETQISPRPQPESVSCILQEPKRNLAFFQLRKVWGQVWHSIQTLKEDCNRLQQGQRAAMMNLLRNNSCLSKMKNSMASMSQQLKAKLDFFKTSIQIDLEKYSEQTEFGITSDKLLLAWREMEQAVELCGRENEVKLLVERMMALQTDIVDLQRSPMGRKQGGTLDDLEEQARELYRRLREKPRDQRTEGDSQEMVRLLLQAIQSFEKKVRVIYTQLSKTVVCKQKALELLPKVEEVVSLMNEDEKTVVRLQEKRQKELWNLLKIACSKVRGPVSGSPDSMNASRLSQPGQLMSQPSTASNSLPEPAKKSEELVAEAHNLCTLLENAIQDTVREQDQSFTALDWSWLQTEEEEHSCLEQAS
The experiment in a line: Inhibition of human full length IKK beta expressed in baculovirus assessed as substrate phosphorylation using fluorescence-labelled peptides as substrate at […] after 90 mins by microfluidic peptide phosphorylation assay.

Experiment [5] deals with Ribosomal protein S6 kinase alpha-3 (Homo sapiens) (UniProt P51812). The experiment in a line: Inhibition of human full length RSK2 expressed in baculovirus assessed as substrate phosphorylation using fluorescence-labelled peptides as substrate at 1000 uM after 90 mins by microfluidic peptide phosphorylation assay.
Experiment [6] addresses T1, Protein kinase C zeta type (Homo sapiens). The experiment in a line: Inhibition of human full length PKC zeta expressed in baculovirus assessed as substrate phosphorylation using fluorescence-labelled peptides as substrate at 0.06 uM after 90 mins by microfluidic peptide phosphorylation assay.
In experiment [7] the target is T4, Aurora kinase C (Homo sapiens) (UniProt Q9UQB9).
T4 sequence (whole entry): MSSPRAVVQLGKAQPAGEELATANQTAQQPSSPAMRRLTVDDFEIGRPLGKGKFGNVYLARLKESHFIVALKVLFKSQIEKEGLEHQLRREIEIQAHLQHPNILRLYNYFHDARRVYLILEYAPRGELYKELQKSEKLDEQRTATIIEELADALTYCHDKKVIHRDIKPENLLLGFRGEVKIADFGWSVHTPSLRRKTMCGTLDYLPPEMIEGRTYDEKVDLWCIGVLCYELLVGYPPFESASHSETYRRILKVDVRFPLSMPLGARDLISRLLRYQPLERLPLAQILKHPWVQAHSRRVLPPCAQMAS
The experiment in a line: Inhibition of human full length AurC expressed in baculovirus assessed as substrate phosphorylation using fluorescence-labelled peptides as substrate at 0.06 uM after 90 mins by microfluidic peptide phosphorylation assay.

Data on 5 compounds can be found in ChEMBL document CHEMBL3132769, “Fragment growing to retain or alter the selectivity of anchored kinase hinge-binding fragments” (Medchemcomm, 2014).

SMILES strings stand for the structures.

Sequence of Ribosomal protein S6 kinase alpha-3 (Homo sapiens) (P51812 whole entry): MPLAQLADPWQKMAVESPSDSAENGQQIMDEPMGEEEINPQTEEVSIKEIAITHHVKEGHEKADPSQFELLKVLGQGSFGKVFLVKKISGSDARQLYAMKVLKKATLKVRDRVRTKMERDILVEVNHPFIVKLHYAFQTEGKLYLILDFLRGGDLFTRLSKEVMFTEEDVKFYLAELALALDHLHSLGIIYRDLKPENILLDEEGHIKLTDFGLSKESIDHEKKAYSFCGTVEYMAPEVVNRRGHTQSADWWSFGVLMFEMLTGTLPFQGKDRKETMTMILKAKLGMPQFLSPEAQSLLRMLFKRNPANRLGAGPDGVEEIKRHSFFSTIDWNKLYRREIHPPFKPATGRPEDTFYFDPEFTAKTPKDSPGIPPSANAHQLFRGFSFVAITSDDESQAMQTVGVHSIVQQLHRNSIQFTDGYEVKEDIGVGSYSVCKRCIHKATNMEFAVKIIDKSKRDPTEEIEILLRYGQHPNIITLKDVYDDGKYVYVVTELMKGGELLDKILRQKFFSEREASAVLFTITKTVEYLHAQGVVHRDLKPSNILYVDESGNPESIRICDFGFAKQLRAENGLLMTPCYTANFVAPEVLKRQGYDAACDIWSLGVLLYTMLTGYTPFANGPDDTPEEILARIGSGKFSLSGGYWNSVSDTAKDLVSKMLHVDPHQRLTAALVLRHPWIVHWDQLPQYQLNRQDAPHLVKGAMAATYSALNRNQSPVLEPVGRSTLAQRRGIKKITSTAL
Sequence of Fibroblast growth factor receptor 4 (Homo sapiens) (P22455 22-802 limits assumed): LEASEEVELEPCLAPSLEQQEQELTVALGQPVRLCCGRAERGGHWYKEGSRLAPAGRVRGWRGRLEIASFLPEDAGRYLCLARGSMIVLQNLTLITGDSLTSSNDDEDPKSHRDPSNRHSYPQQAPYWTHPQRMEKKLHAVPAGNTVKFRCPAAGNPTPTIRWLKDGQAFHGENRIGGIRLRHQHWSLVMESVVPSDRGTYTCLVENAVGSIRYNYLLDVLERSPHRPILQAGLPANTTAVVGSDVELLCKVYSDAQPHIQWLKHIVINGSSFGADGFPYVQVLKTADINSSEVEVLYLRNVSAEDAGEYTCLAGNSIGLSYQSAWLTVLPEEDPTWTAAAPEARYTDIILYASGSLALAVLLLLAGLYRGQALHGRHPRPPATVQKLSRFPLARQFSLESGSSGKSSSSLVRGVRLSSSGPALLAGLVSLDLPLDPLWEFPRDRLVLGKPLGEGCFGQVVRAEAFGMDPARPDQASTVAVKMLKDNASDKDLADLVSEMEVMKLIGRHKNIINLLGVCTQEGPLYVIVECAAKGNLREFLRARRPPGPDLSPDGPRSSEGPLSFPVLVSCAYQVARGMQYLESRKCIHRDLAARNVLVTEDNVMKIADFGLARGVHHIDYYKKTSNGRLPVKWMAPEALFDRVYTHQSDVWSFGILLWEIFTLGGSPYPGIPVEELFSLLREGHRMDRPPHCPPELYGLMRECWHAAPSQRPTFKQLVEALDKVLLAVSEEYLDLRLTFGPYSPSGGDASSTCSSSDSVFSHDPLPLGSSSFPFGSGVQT

For orientation: inhibition means the relative decrease from the control value, in per cent. Take `Clc1ccc(C2(c3ccc(-c4ncnc5[nH]cnc45)cc3)CCNCC2)cc1`: the results for the inhibition in experiment [1] and in experiment [2] were 1% and 1.5%, respectively.

For the compound `NCCc1ccc(-c2ncnc3[nH]cnc23)cc1`, the inhibition in experiment [3] is 44%.

For `COC(=O)c1cnc(Nc2cnc(C#N)cn2)cc1NCC1CCNCC1`, the inhibition in experiment [4] worked out at 2%.

Take `c1cnc2[nH]ccc2c1`: the inhibition in experiment [5] amounted to 68.5%.

Turning to `NC1(Cc2ccc(Cl)cc2)CCN(c2ncnc3[nH]ccc23)CC1`, the inhibition in experiment [6] and in experiment [7] was 0% each time.
